Measurements as given in US11104671B2, “Insecticidal compounds” (SYNGENTA PARTICIPATIONS AG, priority 2017, dated 2021).
Like-named read-outs stand apart in the source and are kept apart here.

Assays:
Format in all cases: in vivo
Diabrotica balteata = Diabrotica balteata (corn root worm), maize sprouts sprayed, L2 larvae; settings: 96 h, read-out: effect in at least one of the two categories (mortality or growth inhibition); for percent effect (mortality or growth inhibition) at 200 ppm: application rate 200 ppm, 4 days after infestation, L2 larvae
Experimental: Diabrotica Balteata (Corn Root Worm)
Maize sprouts placed onto an agar layer in 24-well microtiter plates were treated with aqueous test solutions prepared from 10,000 ppm DMSO stock solutions by spraying. After drying, the plates were infested with L2 larvae (6 to 10 per well). The samples were assessed for mortality and growth inhibition in comparison to untreated samples 4 days after infestation.

Euschistus heros = Euschistus heros (neotropical brown stink bug), soybean leaves sprayed, N2 nymphs; settings: 120 h, read-out: effect in at least one of the two categories (mortality or growth inhibition); for percent effect (mortality or growth inhibition) at 200 ppm: application rate 200 ppm, 5 days after infestation, N2 nymphs
Experimental: Euschistus heros (Neotropical Brown Stink Bug)
Soybean leaves on agar in 24-well microtiter plates were sprayed with aqueous test solutions prepared from 10,000 ppm DMSO stock solutions. After drying the leaves were infested with N2 nymphs. The samples were assessed for mortality and growth inhibition in comparison to untreated samples 5 days after infestation.

Myzus persicae [1] = assay: Myzus persicae (green peach aphid), intrinsic activity; settings: 120 h
Description: Myzus persicae (Green Peach Aphid). Intrinsic Activity
Test compounds prepared from 10,000 ppm DMSO stock solutions were applied by pipette into 24-well microtiter plates and mixed with sucrose solution. The plates were closed with a stretched Parafilm. A plastic stencil with 24 holes was placed onto the plate and infested pea seedlings were placed directly on the Parafilm. The infested plate was closed with a gel blotting paper and another plastic stencil and then turned upside down. The samples were assessed for mortality 5 days after infestation.

Plutella xylostella = Plutella xylostella (diamond back moth), artificial diet, L2 larvae; settings: 120 h, read-out: effect in at least one of the two categories (mortality or growth inhibition); for percent effect (mortality or growth inhibition) at 200 ppm: application rate 200 ppm, 5 days after infestation, L2 larvae
Experimental: Plutella xylostella (Diamond Back Moth)
24-well microtiter plates with artificial diet were treated with aqueous test solutions prepared from 10,000 ppm DMSO stock solutions by pipetting. After drying, the plates were infested with L2 larvae (10 to 15 per well). The samples were assessed for mortality and growth inhibition in comparison to untreated samples 5 days after infestation.

Spodoptera littoralis = Spodoptera littoralis (Egyptian cotton leaf worm), cotton leaf discs, L1 larvae; settings: foliar, 72 h, read-out: control (mortality, anti-feedant effect or growth inhibition)
Experimental: Spodoptera littoralis (Egyptian Cotton Leaf Worm)
Cotton leaf discs were placed onto agar in 24-well microtiter plates and sprayed with aqueous test solutions prepared from 10,000 ppm DMSO stock solutions. After drying the leaf discs were infested with five L1 larvae. The samples were assessed for mortality, anti-feeding effect, and growth inhibition in comparison to untreated samples 3 days after infestation. Control of Spodoptera littoralis by a test sample is given when at least one of the categories mortality, anti-feedant effect, and growth inhibition is higher than the untreated sample.

Tetranychus urticae = Tetranychus urticae (two-spotted spider mite), feeding/contact activity; settings: foliar, 192 h, read-out: mortality on mixed population (mobile stages)
Experimental: Tetranychus urticae (Two-Spotted Spider Mite): Feeding/Contact Activity
Bean leaf discs on agar in 24-well microtiter plates were sprayed with aqueous test solutions prepared from 10,000 ppm DMSO stock solutions. After drying the leaf discs were infested with a mite population of mixed ages. The samples were assessed for mortality on mixed population (mobile stages) 8 days after infestation.

Thrips tabaci = Thrips tabaci (onion thrips), feeding/contact activity; settings: foliar, 144 h
Experimental: Thrips tabaci (Onion thrips) Feeding/Contact Activity
Sunflower leaf discs were placed on agar in 24-well microtiter plates and sprayed with aqueous test solutions prepared from 10,000 ppm DMSO stock solutions. After drying the leaf discs were infested with a thrips population of mixed ages. The samples were assessed for mortality 6 days after infestation.

Myzus persicae [2] = assay: Myzus persicae (green peach aphid), feeding/contact activity; settings: foliar, 144 h
Experimental: Myzus persicae (Green Peach Aphid): Feeding/Contact Activity
Sunflower leaf discs were placed onto agar in a 24-well microtiter plate and sprayed with aqueous test solutions prepared from 10,000 ppm DMSO stock solutions. After drying, the leaf discs were infested with an aphid population of mixed ages. The samples were assessed for mortality 6 days after infestation.

[3] = test rate 12 ppm, 5 days after infestation, sucrose solution, infested pea seedlings, read-out: mortality
[4] = application rate 200 ppm, 3 days after infestation, L1 larvae
[5] = application rate 200 ppm, 8 days after infestation, bean leaf discs
[6] = application rate 200 ppm, 6 days after infestation, sunflower leaf discs, mixed ages, read-out: mortality

CS(=O)(=O)N1CC(NC(=O)c2ccc(C3=CSC(c4cc(Cl)c(Cl)c(Cl)c4)(C(F)(F)F)C3)cc2Cl)CO1 (stereo not shown) [Compound A1, 2-chloro-N-(2-methylsulfonylisoxazolidin-4-yl)-4-[2-(3,4,5-trichlorophenyl)-2-(trifluoromethyl)-3H-thiophen-4-yl]benzamide]
≥ 80%: percent effect (mortality or growth inhibition) at 200 ppm (Diabrotica balteata) | percent effect (mortality or growth inhibition) at 200 ppm (Euschistus heros) | mortality at 12 ppm (Myzus persicae [1]; [3]) | percent effect (mortality or growth inhibition) at 200 ppm (Plutella xylostella) | percent control (mortality, anti-feedant effect or growth inhibition) at 200 ppm (Spodoptera littoralis; [4]) | mortality at 200 ppm (Tetranychus urticae; [5]) | mortality at 200 ppm (Thrips tabaci; [6])

Cc1cc(C2=NS[C@@](c3cc(Cl)cc(Cl)c3)(C(F)(F)F)C2)ccc1C(=O)NC1CON(S(C)(=O)=O)C1 (stereo partly drawn) [Compound A2, 4-[(5S)-5-(3,5-dichlorophenyl)-5-(trifluoromethyl)-4H-isothiazol-3-yl]-2-methyl-N-(2-methylsulfonylisoxazolidin-4-yl)benzamide]
≥ 80%: percent effect (mortality or growth inhibition) at 200 ppm (Diabrotica balteata) | percent effect (mortality or growth inhibition) at 200 ppm (Euschistus heros) | mortality at 12 ppm (Myzus persicae [1]; [3]) | mortality at 200 ppm (Myzus persicae [2]; [6]) | percent effect (mortality or growth inhibition) at 200 ppm (Plutella xylostella) | percent control (mortality, anti-feedant effect or growth inhibition) at 200 ppm (Spodoptera littoralis; [4]) | mortality at 200 ppm (Tetranychus urticae; [5]) | mortality at 200 ppm (Thrips tabaci; [6])

Cc1cc(C2=COC(c3cc(Cl)cc(Cl)c3)(C(F)(F)F)C2)ccc1C(=O)NC1CON(S(C)(=O)=O)C1 (stereo not shown) [Compound A3, 4-[2-(3,5-dichlorophenyl)-2-(trifluoromethyl)-3H-furan-4-yl]-2-methyl-N-(2-methylsulfonylisoxazolidin-4-yl)benzamide]
≥ 80%: percent effect (mortality or growth inhibition) at 200 ppm (Diabrotica balteata) | percent effect (mortality or growth inhibition) at 200 ppm (Euschistus heros) | mortality at 12 ppm (Myzus persicae [1]; [3]) | percent effect (mortality or growth inhibition) at 200 ppm (Plutella xylostella) | percent control (mortality, anti-feedant effect or growth inhibition) at 200 ppm (Spodoptera littoralis; [4]) | mortality at 200 ppm (Tetranychus urticae; [5]) | mortality at 200 ppm (Thrips tabaci; [6])

Cc1cc(C2=NO[C@](c3cc(Cl)cc(Cl)c3)(C(F)(F)F)[C@H]2Cl)ccc1C(=O)NC1CON(S(C)(=O)=O)C1 (stereo partly drawn) [Compound A4, 4-[(4S,5R)-4-chloro-5-(3,5-dichlorophenyl)-5-(trifluoromethyl)-4H-isoxazol-3-yl]-2-methyl-N-(2-methylsulfonylisoxazolidin-4-yl)benzamide]
≥ 80%: percent control (mortality or growth inhibition) at 200 ppm (Diabrotica balteata) | percent control (mortality or growth inhibition) at 200 ppm (Euschistus heros) | mortality at 12 ppm (Myzus persicae [1]) | mortality at 200 ppm (Myzus persicae [2]) | percent control (mortality or growth inhibition) at 200 ppm (Plutella xylostella) | percent control (mortality, anti-feedant effect or growth inhibition) at 200 ppm (Spodoptera littoralis) | mortality at 200 ppm (Tetranychus urticae) | mortality at 200 ppm (Thrips tabaci)

Cc1cc(C2=NCC(c3cc(Cl)c(F)c(Cl)c3)(C(F)(F)F)C2)ccc1C(=O)N[C@H]1CON(S(=O)(=O)N(C)C)C1 (stereo partly drawn) [Compound A10, 4-[3-(3,5-dichloro-4-fluoro-phenyl)-3-(trifluoromethyl)-2,4-dihydropyrrol-5-yl]-N-[(4R)-2-(dimethylsulfamoyl)isoxazolidin-4-yl]-2-methyl-benzamide]
≥ 80%: percent effect (mortality or growth inhibition) at 200 ppm (Diabrotica balteata) | percent effect (mortality or growth inhibition) at 200 ppm (Euschistus heros) | mortality at 200 ppm (Myzus persicae [2]; [6]) | percent effect (mortality or growth inhibition) at 200 ppm (Plutella xylostella) | percent control (mortality, anti-feedant effect or growth inhibition) at 200 ppm (Spodoptera littoralis; [4]) | mortality at 200 ppm (Tetranychus urticae; [5]) | mortality at 200 ppm (Thrips tabaci; [6])

Cc1cc(C2=COC(c3cc(Cl)cc(Cl)c3)(C(F)(F)F)C2)ccc1C(=O)N[C@H]1CON(S(=O)(=O)N(C)C)C1 (stereo partly drawn) [Compound A12, 4-[2-(3,5-dichlorophenyl)-2-(trifluoromethyl)-3H-furan-4-yl]-N-[(4R)-2-(dimethylsulfamoyl)isoxazolidin-4-yl]-2-methyl-benzamide]
≥ 80%: percent effect (mortality or growth inhibition) at 200 ppm (Diabrotica balteata) | percent effect (mortality or growth inhibition) at 200 ppm (Euschistus heros) | mortality at 200 ppm (Myzus persicae [2]; [6]) | percent effect (mortality or growth inhibition) at 200 ppm (Plutella xylostella) | percent control (mortality, anti-feedant effect or growth inhibition) at 200 ppm (Spodoptera littoralis; [4]) | mortality at 200 ppm (Tetranychus urticae; [5]) | mortality at 200 ppm (Thrips tabaci; [6])

Cc1cc(C2=NS[C@@](c3cc(Cl)cc(Cl)c3)(C(F)(F)F)C2)ccc1C(=O)N[C@H]1CON(S(=O)(=O)N(C)C)C1 [Compound A13, 4-[(5S)-5-(3,5-dichlorophenyl)-5-(trifluoromethyl)-4H-isothiazol-3-yl]-N-[(4R)-2-(dimethylsulfamoyl)isoxazolidin-4-yl]-2-methyl-benzamide]
≥ 80%: percent effect (mortality or growth inhibition) at 200 ppm (Diabrotica balteata) | percent effect (mortality or growth inhibition) at 200 ppm (Euschistus heros) | mortality at 200 ppm (Myzus persicae [2]; [6]) | percent effect (mortality or growth inhibition) at 200 ppm (Plutella xylostella) | percent control (mortality, anti-feedant effect or growth inhibition) at 200 ppm (Spodoptera littoralis; [4]) | mortality at 200 ppm (Tetranychus urticae; [5]) | mortality at 200 ppm (Thrips tabaci; [6])

Cc1cc(C2=NCC(c3cc(Cl)cc(Cl)c3)(C(F)(F)F)C2)ccc1C(=O)N[C@H]1CON(S(=O)(=O)N(C)C)C1 (stereo partly drawn) [Compound A14, 4-[3-(3,5-dichlorophenyl)-3-(trifluoromethyl)-2,4-dihydropyrrol-5-yl]-N-[(4R)-2-(dimethylsulfamoyl)isoxazolidin-4-yl]-2-methyl-benzamide]
≥ 80%: percent effect (mortality or growth inhibition) at 200 ppm (Diabrotica balteata) | percent effect (mortality or growth inhibition) at 200 ppm (Euschistus heros) | mortality at 200 ppm (Myzus persicae [2]; [6]) | percent effect (mortality or growth inhibition) at 200 ppm (Plutella xylostella) | percent control (mortality, anti-feedant effect or growth inhibition) at 200 ppm (Spodoptera littoralis; [4]) | mortality at 200 ppm (Tetranychus urticae; [5]) | mortality at 200 ppm (Thrips tabaci; [6])

Cc1cc(N2CCC(c3cc(Cl)cc(Cl)c3)(C(F)(F)F)C2)ncc1C(=O)N[C@H]1CON(S(=O)(=O)N(C)C)C1 (stereo partly drawn) [Compound A15, 6-[3-(3,5-dichlorophenyl)-3-(trifluoromethyl)pyrrolidin-1-yl]-N-[(4R)-2-(dimethylsulfamoyl)isoxazolidin-4-yl]-4-methyl-pyridine-3-carboxamide]
≥ 80%: percent effect (mortality or growth inhibition) at 200 ppm (Diabrotica balteata) | percent effect (mortality or growth inhibition) at 200 ppm (Euschistus heros) | percent effect (mortality or growth inhibition) at 200 ppm (Plutella xylostella) | percent control (mortality, anti-feedant effect or growth inhibition) at 200 ppm (Spodoptera littoralis; [4]) | mortality at 200 ppm (Tetranychus urticae; [5])

Cc1nc(N2CCC(c3cc(Cl)cc(Cl)c3)(C(F)(F)F)C2)ccc1C(=O)N[C@H]1CON(S(=O)(=O)N(C)C)C1 (stereo partly drawn) [Compound A16, 6-[3-(3,5-dichlorophenyl)-3-(trifluoromethyl)pyrrolidin-1-yl]-N-[(4R)-2-(dimethylsulfamoyl)isoxazolidin-4-yl]-2-methyl-pyridine-3-carboxamide]
≥ 80%: percent effect (mortality or growth inhibition) at 200 ppm (Diabrotica balteata) | percent effect (mortality or growth inhibition) at 200 ppm (Euschistus heros) | mortality at 200 ppm (Myzus persicae [2]; [6]) | percent effect (mortality or growth inhibition) at 200 ppm (Plutella xylostella) | percent control (mortality, anti-feedant effect or growth inhibition) at 200 ppm (Spodoptera littoralis; [4]) | mortality at 200 ppm (Tetranychus urticae; [5]) | mortality at 200 ppm (Thrips tabaci; [6])

Cc1nc(C2=CC(c3cc(Cl)cc(Cl)c3)(C(F)(F)F)OC2)ccc1C(=O)N[C@H]1CON(S(=O)(=O)N(C)C)C1 (stereo partly drawn) [Compound A17, 6-[5-(3,5-dichlorophenyl)-5-(trifluoromethyl)-2H-furan-3-yl]-N-[(4R)-2-(dimethylsulfamoyl)isoxazolidin-4-yl]-2-methyl-pyridine-3-carboxamide]
≥ 80%: percent effect (mortality or growth inhibition) at 200 ppm (Diabrotica balteata) | percent effect (mortality or growth inhibition) at 200 ppm (Euschistus heros) | percent effect (mortality or growth inhibition) at 200 ppm (Plutella xylostella) | percent control (mortality, anti-feedant effect or growth inhibition) at 200 ppm (Spodoptera littoralis; [4]) | mortality at 200 ppm (Tetranychus urticae; [5]) | mortality at 200 ppm (Thrips tabaci; [6])
